Reference: patent US20140024576A1, “HEPTOSE DERIVATIVES FOR USE IN THE TREATMENT OF BACTERIAL INFECTIONS” (priority 2010, published 2014)

Tests used:
[1] = biological target: GmhA of E. coli (Escherichia coli, UniProt P63224); test: Inhibition of the enzymatic activity of GmhA (luminescent assay); format: biochemical
Description: Inhibition of the Enzymatic Activity of GmhA (Luminescent Assay):
The assay buffer “AB” contained 50 mM Hepes pH7.5, 1 mM MnCl2, 25 mM KCl, 0.012% Triton-X100 and 1 mM dithiothreitol (DTT) and 0.1 μM Myelin basic protein (MBP). The following components were added in a white polystyrene Costar plate up to a final volume of 30 μL: 10 μL inhibitor dissolved in DMSO/water 50/50, and 20 μL GmhA of E. coli in AB. After 30 min of pre-incubation at room temperature, 30 μL of Substrates mix in AB were added in each well to a final volume of 60 μL. This reaction mixture was then composed of 2 nM GmhA, 3 μM sedoheptulose-7-phosphate (Sigma), 3 μM ATP (Sigma) and 50 nM HldE of E. coli in assay buffer. After 30 min of incubation at room temperature, 100 μL of the revelation mix were added to a final volume of 160 μL, including the following constituents at the respective final concentrations: 10000 light units/ml luciferase (Sigma), 20 μM D-luciferin (Sigma), 100 μM N-acetylcysteamine (Aldrich). Luminescence intensity was immediately measured on Luminoskan (Thermofischer) and converted into inhibition percentages. For IC50 determinations, the inhibitor was tested at 6 to 10 different concentrations, and the related inhibitions were fitted to a classical langmuir equilibrium model using XLFIT (IDBS).

[2] = biological target: HldE of E. coli (HldE-K) (Escherichia coli, UniProt P76658); test: Inhibition of the enzymatic activity of HldE-K (luminescent assay on kinase activity); format: biochemical
HldE of E. coli (HldE-K), sequence (P76658 whole entry): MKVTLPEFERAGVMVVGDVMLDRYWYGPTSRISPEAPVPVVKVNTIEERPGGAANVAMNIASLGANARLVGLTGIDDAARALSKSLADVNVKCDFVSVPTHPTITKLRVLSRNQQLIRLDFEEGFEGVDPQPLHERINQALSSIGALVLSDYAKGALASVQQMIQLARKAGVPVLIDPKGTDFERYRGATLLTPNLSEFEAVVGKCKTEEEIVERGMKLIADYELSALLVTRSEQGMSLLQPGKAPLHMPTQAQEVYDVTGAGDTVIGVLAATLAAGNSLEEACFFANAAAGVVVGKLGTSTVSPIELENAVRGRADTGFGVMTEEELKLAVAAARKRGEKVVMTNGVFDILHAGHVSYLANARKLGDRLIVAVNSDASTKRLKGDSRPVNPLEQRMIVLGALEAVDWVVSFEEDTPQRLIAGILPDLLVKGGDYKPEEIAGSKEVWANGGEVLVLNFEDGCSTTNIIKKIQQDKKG
Description: Inhibition of the Enzymatic Activity of HldE-K (Luminescent Assay On Kinase Activity):
The assay buffer “AB” contained 50 mM Hepes pH7.5, 1 mM MnCl2, 25 mM KCl, 0.012% Triton-X100 and 1 mM dithiothreitol (DTT) and 0.1 μM Myelin basic protein (MBP). The following components were added in a white polystyrene Costar plate up to a final volume of 30 μL: 10 μL inhibitor dissolved in DMSO/water 50/50, and 20 μL HldE of E. coli in AB. After 30 min of pre-incubation at room temperature, 30 μL of Substrates mix in AB were added in each well to a final volume of 60 μL. This reaction mixture was then composed of 3 nM HldE, 0.2 μM β-heptose-7-phosphate (custom synthesis) and 0.2 μM ATP (Sigma) in assay buffer. After 30 min of incubation at room temperature, 200 μL of the revelation mix were added to a final volume of 260 µL, including the following constituents at the respective final concentrations: 5000 light units/ml luciferase (Sigma), 30 μM D-luciferin (Sigma), 100 μM N-acetylcysteamine (Aldrich). Luminescence intensity was immediately measured on Luminoskan (Thermofischer) and converted into inhibition percentages. For IC50 determinations, the inhibitor was tested at 6 to 10 different concentrations, and the related inhibitions were fitted to a classical Langmuir equilibrium model using XLFIT (IDBS).

GmhA of E. coli, sequence (P63224 whole entry): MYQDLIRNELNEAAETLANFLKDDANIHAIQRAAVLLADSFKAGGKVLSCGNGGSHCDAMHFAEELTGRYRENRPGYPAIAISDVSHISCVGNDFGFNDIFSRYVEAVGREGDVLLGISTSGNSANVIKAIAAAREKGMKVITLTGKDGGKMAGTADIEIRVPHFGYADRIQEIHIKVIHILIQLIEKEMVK

| SMILES | IC50 [1] [µM] | IC50 [2] [µM] |
| --- | --- | --- |
| CO[C@H]1OC([C@H](O)COP(=O)(O)O)[C@@H](O)C(O)C1O (stereo partly drawn) [Example 1, Methyl 7-O-phosphate-D-glycero-α-D-gluco-heptopyranoside] | < 100 | < 100 |
| CO[C@@H]1O[C@H]([C@H](O)COP(=O)(O)O)[C@@H](O)[C@H](O)[C@@H]1O [Example 3, 1-O-Methyl-D-glycero-β-D-manno-heptopyranose 7-phosphate] | < 100 | – |
| O=P(O)(O)OC[C@@H](O)[C@H]1O[C@H](F)[C@@H](O)[C@@H](O)[C@@H]1O [Example 6, α-Fluoro 7-O-phosphoryl-D-glycero-α-D-manno-heptopyranoside] | < 100 | < 100 |
| CCC[C@H]1O[C@H]([C@H](O)COP(=O)(O)O)[C@@H](O)[C@H](O)[C@@H]1O [Example 8, 1-Deoxy-1-propyl-D-glycero-α-D-manno-heptopyranose 7-phosphate] | < 100 | < 100 |
| O=P(O)(O)OC[C@@H](O)[C@H]1O[C@@H](CO)[C@@H](O)[C@@H](O)[C@@H]1O [Example 11, 1-β-C-Hydroxymethylene 1-Deoxy-7-O-phosphoryl-D-glycero-D-manno-heptopyranose] | < 100 | < 100 |
| CC1(O)OC(C(O)COP(=O)(O)O)C(O)C(O)C1O [Example 12, 1-C-Methyl 7-O-phosphoryl-D-glycero-α-D-manno-heptopyranose] | < 100 | < 100 |
| O=P(O)(O)OC[C@@H](O)[C@H]1O[C@@](O)(CO)[C@@H](O)[C@@H](O)[C@@H]1O [Example 13, 1-C-Hydroxymethylene 7-O-phosphoryl-D-glycero-D-manno-heptopyranose] | < 100 | < 100 |
